Results as given in PMC10987503, “Biomimetic NIR-II fluorescent proteins created from chemogenic protein-seeking dyes for multicolor deep-tissue bioimaging” (Nature Communications, 2024).

What was measured:
[1] = biological target: T1, human serum albumin (HSA) (Homo sapiens, UniProt P02768); assay: BLI; also HRMS ([…] covalent binding) and SDS-PAGE
T1 construct: gene ALB; full HSA; recombinant domain III (DIII) also measured

[2] = biological target: T1, human serum albumin (HSA); assay: BLI; also HRMS ([…] covalent binding) and SDS-PAGE; remark: listed apart in the source
[3] = biological target: T1, human serum albumin (HSA); assay: BLI; also HRMS, SDS-PAGE and proteomics of the covalent adduct; assay type: binding

T1 sequence (P02768 25-609): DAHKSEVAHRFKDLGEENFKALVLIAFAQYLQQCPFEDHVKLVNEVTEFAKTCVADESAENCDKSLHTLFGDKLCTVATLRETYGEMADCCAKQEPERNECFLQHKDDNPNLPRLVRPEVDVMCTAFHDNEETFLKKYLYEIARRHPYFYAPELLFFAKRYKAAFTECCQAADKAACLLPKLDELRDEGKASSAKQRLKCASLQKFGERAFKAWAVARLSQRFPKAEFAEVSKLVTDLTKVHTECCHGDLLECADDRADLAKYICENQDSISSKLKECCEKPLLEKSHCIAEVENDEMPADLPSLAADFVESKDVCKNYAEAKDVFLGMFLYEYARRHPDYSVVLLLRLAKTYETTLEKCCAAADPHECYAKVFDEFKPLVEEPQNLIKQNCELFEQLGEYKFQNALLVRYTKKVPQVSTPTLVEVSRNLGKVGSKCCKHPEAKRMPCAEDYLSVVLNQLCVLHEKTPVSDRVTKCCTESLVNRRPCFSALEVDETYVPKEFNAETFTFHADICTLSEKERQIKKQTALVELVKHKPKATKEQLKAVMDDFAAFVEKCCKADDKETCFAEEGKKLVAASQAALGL

## O=S(=O)(O)CCCCn1/c(=C/C=C2\CCCC(/C=C/C3=[N+](CCCCS(=O)(=O)O)c4cccc5cccc3c45)=C2Cl)c2cccc3cccc1c32 [FD-1080]
[1]
  Kd: ~82.6 nM

## CCn1/c(=C/C=C2\CCCC(/C=C/C3=[N+](CC)c4cccc5cccc3c45)=C2Cl)c2cccc3cccc1c32 [Et-1080]
[2]
  Kd: ~14.5 nM

## O=C(O)CCCCCn1/c(=C/C=C2\CCCC(/C=C/C3=[N+](CCCCCC(=O)O)c4cccc5cccc3c45)=C2Cl)c2cccc3cccc1c32 [CO-1080]
[3]
  Kd: ~2.13 nM
